Data from patent EP4722207A1, “OXOISOINDOLINYL-SUBSTITUTED TETRAHYDROPYRIMIDINEDIONE DERIVATIVE AND USE THEREOF” (Gluetacs Therapeutics (Shanghai) Co., Ltd., priority 2023, dated 2024).

What was measured:
Assay type in all cases: cell-based
Settings in all cases: compounds at 50 nM and 500 nM, 24 hours
CK1α = molecular target: T1, CK1α (Homo sapiens, UniProt P48729+Q96SW2); assay: Western-blot assay, substrate protein degradation in hPBMCs: CK1α
T1 construct: effects of the compounds of the present disclosure on the expression of target proteins in cells; endogenous in cells; host or cells: human PBMCs (hPBMCs)

IKZF3 = molecular target: T2, IKZF3 (Homo sapiens, UniProt Q96SW2+Q9UKT9); assay: Western-blot assay, substrate protein degradation in hPBMCs: IKZF3
T2 construct: effects of the compounds of the present disclosure on the expression of target proteins in cells; endogenous in cells; host or cells: human PBMCs (hPBMCs)
T2 sequence (Q9UKT9 whole entry): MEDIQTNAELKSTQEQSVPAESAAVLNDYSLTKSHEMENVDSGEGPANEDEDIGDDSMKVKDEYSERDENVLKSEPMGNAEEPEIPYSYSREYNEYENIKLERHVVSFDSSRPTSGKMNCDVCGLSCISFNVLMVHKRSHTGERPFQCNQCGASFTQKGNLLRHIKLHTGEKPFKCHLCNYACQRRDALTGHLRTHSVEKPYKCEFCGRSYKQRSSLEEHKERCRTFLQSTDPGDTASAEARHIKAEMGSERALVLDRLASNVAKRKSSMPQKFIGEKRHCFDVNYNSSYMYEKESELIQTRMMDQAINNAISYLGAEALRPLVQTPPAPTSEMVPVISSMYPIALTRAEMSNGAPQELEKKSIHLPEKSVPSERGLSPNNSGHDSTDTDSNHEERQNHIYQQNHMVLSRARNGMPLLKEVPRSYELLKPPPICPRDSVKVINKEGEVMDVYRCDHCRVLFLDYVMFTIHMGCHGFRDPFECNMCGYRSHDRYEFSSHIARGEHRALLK
T2 sequence (Q96SW2 whole entry): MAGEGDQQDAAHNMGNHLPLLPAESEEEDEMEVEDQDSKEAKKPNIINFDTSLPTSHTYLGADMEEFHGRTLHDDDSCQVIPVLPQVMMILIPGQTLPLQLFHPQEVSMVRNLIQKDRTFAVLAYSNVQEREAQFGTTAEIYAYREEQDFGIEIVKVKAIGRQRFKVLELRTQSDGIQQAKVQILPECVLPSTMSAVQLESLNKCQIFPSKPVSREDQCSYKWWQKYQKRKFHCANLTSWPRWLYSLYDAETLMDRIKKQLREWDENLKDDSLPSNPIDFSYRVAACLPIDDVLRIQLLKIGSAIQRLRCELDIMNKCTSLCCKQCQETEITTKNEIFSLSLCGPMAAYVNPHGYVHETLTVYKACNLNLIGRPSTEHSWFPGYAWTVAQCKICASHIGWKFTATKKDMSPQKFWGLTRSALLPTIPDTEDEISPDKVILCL
T2 sequence (Q16531 whole entry partner): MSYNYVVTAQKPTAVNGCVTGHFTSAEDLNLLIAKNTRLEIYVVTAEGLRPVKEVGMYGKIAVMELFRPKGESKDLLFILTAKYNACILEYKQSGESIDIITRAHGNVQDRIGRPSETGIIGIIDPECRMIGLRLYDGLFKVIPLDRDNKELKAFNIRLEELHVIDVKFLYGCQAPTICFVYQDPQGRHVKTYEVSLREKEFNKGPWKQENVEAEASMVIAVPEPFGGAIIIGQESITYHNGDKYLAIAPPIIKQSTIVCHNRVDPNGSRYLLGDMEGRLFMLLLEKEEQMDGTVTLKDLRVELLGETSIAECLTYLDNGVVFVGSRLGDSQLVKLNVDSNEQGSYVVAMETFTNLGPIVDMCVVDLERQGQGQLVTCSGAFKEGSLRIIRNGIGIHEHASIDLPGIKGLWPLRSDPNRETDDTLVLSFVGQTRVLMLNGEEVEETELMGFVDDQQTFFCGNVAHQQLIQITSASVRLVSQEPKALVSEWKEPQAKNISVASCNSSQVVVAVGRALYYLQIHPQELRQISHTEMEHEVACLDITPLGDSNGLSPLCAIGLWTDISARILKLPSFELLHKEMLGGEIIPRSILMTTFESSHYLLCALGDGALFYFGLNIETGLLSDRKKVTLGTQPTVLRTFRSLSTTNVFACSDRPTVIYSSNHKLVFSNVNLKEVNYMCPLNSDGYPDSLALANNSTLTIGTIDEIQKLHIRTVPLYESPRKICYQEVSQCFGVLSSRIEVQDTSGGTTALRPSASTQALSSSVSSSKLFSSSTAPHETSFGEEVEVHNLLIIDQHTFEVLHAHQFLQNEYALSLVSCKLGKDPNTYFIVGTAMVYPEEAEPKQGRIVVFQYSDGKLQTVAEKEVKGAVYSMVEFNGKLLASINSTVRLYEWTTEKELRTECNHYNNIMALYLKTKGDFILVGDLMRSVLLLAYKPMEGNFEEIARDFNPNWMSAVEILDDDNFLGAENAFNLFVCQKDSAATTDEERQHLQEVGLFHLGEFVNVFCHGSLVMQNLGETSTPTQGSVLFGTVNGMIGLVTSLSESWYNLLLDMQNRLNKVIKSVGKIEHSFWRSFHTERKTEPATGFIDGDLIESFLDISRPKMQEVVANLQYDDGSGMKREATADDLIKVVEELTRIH

WEE1 = molecular target: T3, WEE1 (Homo sapiens, UniProt P30291+Q96SW2); assay: Western-blot assay, substrate protein degradation in hPBMCs: WEE1
T3 construct: effects of the compounds of the present disclosure on the expression of target proteins in cells; endogenous in cells; host or cells: human PBMCs (hPBMCs)
T3 sequence (P30291 whole entry): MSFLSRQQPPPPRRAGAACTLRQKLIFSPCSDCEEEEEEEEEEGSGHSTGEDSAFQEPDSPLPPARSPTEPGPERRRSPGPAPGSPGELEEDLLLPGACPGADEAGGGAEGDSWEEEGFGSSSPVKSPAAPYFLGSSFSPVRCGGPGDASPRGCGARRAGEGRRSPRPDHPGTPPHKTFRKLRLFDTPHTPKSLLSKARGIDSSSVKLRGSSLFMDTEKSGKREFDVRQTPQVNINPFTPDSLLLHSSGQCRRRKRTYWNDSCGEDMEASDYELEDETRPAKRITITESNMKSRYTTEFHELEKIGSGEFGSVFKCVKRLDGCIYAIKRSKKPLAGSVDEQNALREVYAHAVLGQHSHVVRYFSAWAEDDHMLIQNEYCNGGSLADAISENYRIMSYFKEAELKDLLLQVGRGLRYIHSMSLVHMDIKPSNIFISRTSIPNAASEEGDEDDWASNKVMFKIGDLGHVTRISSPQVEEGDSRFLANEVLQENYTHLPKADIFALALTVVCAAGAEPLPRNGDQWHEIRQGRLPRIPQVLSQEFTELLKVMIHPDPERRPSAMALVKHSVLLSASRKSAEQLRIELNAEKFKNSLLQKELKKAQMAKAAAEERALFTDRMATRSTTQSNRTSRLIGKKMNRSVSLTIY
T3 sequence (Q96SW2 whole entry): as the sequence (Q96SW2 whole entry) above
T3 sequence (Q16531 whole entry partner): as the sequence (Q16531 whole entry partner) above

IKZF1 = molecular target: T4, IKZF1 (Homo sapiens, UniProt Q13422+Q96SW2); assay: Western-blot assay, substrate protein degradation in hPBMCs: IKZF1
T4 construct: effects of the compounds of the present disclosure on the expression of target proteins in cells; endogenous in cells; host or cells: human PBMCs (hPBMCs)
T4 sequence (Q13422 whole entry): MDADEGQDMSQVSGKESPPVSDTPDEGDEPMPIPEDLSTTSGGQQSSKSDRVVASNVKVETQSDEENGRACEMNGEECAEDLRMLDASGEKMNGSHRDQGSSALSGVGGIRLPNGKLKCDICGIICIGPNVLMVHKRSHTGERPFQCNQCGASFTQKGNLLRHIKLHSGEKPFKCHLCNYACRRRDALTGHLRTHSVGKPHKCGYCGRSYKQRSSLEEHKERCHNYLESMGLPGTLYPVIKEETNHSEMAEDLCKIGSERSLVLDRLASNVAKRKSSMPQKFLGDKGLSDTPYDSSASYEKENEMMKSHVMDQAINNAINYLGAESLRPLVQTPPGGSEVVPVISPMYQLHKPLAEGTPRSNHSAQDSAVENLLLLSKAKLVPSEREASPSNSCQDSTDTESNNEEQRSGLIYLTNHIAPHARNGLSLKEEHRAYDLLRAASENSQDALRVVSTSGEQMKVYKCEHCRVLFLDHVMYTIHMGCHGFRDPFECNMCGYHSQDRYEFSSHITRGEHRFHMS
T4 sequence (Q96SW2 whole entry): as the sequence (Q96SW2 whole entry) above
T4 sequence (Q16531 whole entry partner): as the sequence (Q16531 whole entry partner) above

GSPT1 = molecular target: T5, GSPT1 (Homo sapiens, UniProt P15170+Q96SW2); assay: Western-blot assay, substrate protein degradation in hPBMCs: GSPT1
T5 construct: effects of the compounds of the present disclosure on the expression of target proteins in cells; endogenous in cells; host or cells: human PBMCs (hPBMCs)
T5 sequence (P15170 whole entry): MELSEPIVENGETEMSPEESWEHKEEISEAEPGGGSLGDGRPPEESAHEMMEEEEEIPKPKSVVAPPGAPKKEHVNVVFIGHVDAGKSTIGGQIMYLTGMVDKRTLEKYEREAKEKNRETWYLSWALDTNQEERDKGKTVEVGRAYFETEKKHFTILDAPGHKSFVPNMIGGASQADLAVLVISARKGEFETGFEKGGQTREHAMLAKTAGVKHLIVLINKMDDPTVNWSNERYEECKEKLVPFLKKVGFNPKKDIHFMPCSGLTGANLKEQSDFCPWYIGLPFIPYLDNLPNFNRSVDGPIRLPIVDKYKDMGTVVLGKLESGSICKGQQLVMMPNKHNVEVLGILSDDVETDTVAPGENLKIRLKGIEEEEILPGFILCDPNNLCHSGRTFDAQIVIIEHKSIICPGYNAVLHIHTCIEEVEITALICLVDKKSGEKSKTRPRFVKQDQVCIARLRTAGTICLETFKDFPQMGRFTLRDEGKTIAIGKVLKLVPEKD
T5 sequence (Q96SW2 whole entry): as the sequence (Q96SW2 whole entry) above
T5 sequence (Q16531 whole entry partner): as the sequence (Q16531 whole entry partner) above

IKZF2 = molecular target: T6, IKZF2 (Homo sapiens, UniProt Q96SW2+Q9UKS7); assay: Western-blot assay, substrate protein degradation in hPBMCs: IKZF2
T6 construct: effects of the compounds of the present disclosure on the expression of target proteins in cells; endogenous in cells; host or cells: human PBMCs (hPBMCs)
T6 sequence (Q9UKS7 whole entry): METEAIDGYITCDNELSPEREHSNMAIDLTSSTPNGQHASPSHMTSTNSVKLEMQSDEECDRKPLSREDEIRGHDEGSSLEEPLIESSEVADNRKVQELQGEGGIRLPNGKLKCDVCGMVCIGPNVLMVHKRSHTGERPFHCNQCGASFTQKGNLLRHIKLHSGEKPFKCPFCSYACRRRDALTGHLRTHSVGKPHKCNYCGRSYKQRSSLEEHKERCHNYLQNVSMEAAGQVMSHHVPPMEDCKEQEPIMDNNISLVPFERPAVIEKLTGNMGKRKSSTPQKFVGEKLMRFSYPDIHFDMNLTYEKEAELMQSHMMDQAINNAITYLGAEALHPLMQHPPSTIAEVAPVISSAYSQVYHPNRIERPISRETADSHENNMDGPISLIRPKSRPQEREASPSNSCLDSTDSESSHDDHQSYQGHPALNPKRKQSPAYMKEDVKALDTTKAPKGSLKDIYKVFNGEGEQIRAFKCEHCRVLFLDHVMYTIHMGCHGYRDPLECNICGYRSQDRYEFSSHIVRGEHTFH
T6 sequence (Q96SW2 whole entry): as the sequence (Q96SW2 whole entry) above
T6 sequence (Q16531 whole entry partner): as the sequence (Q16531 whole entry partner) above

O=C1CCN(N2Cc3cc(CN4C5CCC4CN(C(c4ccccc4)c4ccccc4)C5)ccc3C2=O)C(=O)N1 [GT-06454, 1-(5-((3-benzhydryl-3,8-diazabicyclo[3.2.1]octan-8-yl)methyl)-1-oxoisoindolin-2-yl)dihydropyrimidine-2,4(1H,3H)-dione]
CK1α substrate protein remaining % (CK1α): B ("B" is defined as 80%< substrate protein remaining %≤ 100%)
IKZF3 substrate protein remaining % (IKZF3): B ("B" is defined as 80%< substrate protein remaining %≤ 100%)
WEE1 substrate protein remaining % (WEE1): A ("A" is defined as 0% ≤ substrate protein remaining % ≤ 80%)
IKZF1 substrate protein remaining % (IKZF1): B ("B" is defined as 80%< substrate protein remaining %≤ 100%)
GSPT1 substrate protein remaining % (GSPT1): B ("B" is defined as 80%< substrate protein remaining %≤ 100%)
IKZF2 substrate protein remaining % (IKZF2): B ("B" is defined as 80%< substrate protein remaining %≤ 100%)

O=C1CCN(N2C(=O)c3ccc(CN4C5CCC4CN(C(c4ccccc4)c4ccccc4)C5)cc3C2=O)C(=O)N1 [GT-06455, 5-((3-benzhydryl-3,8-diazabicyclo[3.2.1]octan-8-yl)methyl)-2-(2,4-dioxotetrahydropyrimidin-1(2H)-yl)isoindoline-1,3-dione]
CK1α substrate protein remaining % (CK1α): B ("B" is defined as 80%< substrate protein remaining %≤ 100%)
IKZF3 substrate protein remaining % (IKZF3): B ("B" is defined as 80%< substrate protein remaining %≤ 100%)
WEE1 substrate protein remaining % (WEE1): A ("A" is defined as 0% ≤ substrate protein remaining % ≤ 80%)
IKZF1 substrate protein remaining % (IKZF1): B ("B" is defined as 80%< substrate protein remaining %≤ 100%)
GSPT1 substrate protein remaining % (GSPT1): B ("B" is defined as 80%< substrate protein remaining %≤ 100%)
IKZF2 substrate protein remaining % (IKZF2): B ("B" is defined as 80%< substrate protein remaining %≤ 100%)

CC1(C)CCC(CN2CC3CC(C2)N3Cc2ccc3c(c2)C(=O)N(N2CCC(=O)NC2=O)C3=O)=C(c2ccc(Cl)cc2)C1 [GT-06457, 5-((3-((4'-chloro-5,5-dimethyl-3,4,5,6-tetrahydro-[1,1'-biphenyl]-2-yl)methyl)-3,6-diazabicyclo[3.1.1]heptan-6-yl)methyl)-2-(2,4-dioxotetrahydropyrimidin-1(2H)-yl)isoindoline-1,3-dione]
CK1α substrate protein remaining % (CK1α): A ("A" is defined as 0% ≤ substrate protein remaining % ≤ 80%)
IKZF3 substrate protein remaining % (IKZF3): A ("A" is defined as 0% ≤ substrate protein remaining % ≤ 80%)
WEE1 substrate protein remaining % (WEE1): A ("A" is defined as 0% ≤ substrate protein remaining % ≤ 80%)
IKZF1 substrate protein remaining % (IKZF1): A ("A" is defined as 0% ≤ substrate protein remaining % ≤ 80%)
GSPT1 substrate protein remaining % (GSPT1): A ("A" is defined as 0% ≤ substrate protein remaining % ≤ 80%)
IKZF2 substrate protein remaining % (IKZF2): A ("A" is defined as 0% ≤ substrate protein remaining % ≤ 80%)

CC1(C)CCC(CN2C3CC2CN(Cc2ccc4c(c2)CN(N2CCC(=O)NC2=O)C4=O)C3)=C(c2ccc(Cl)cc2)C1 [GT-06458, 1-(5-((6-((4'-chloro-5,5-dimethyl-3,4,5,6-tetrahydro-[1,1'-biphenyl]-2-yl)methyl)-3,6-diazabicyclo[3.1.1]heptan-3-yl)methyl)-1-oxoisoindolin-2-yl)dihydropyrimidine-2,4(1H,3H)-dione]
CK1α substrate protein remaining % (CK1α): A ("A" is defined as 0% ≤ substrate protein remaining % ≤ 80%)
IKZF3 substrate protein remaining % (IKZF3): A ("A" is defined as 0% ≤ substrate protein remaining % ≤ 80%)
WEE1 substrate protein remaining % (WEE1): A ("A" is defined as 0% ≤ substrate protein remaining % ≤ 80%)
IKZF1 substrate protein remaining % (IKZF1): A ("A" is defined as 0% ≤ substrate protein remaining % ≤ 80%)
GSPT1 substrate protein remaining % (GSPT1): A ("A" is defined as 0% ≤ substrate protein remaining % ≤ 80%)
IKZF2 substrate protein remaining % (IKZF2): A ("A" is defined as 0% ≤ substrate protein remaining % ≤ 80%)

CC1(C)CCC(CN2C3CC2CN(Cc2ccc4c(c2)C(=O)N(N2CCC(=O)NC2=O)C4=O)C3)=C(c2ccc(Cl)cc2)C1 [GT-06459, 5-((6-((4'-chloro-5,5-dimethyl-3,4,5,6-tetrahydro-[1,1'-biphenyl]-2-yl)methyl)-3,6-diazabicyclo[3.1.1]heptan-3-yl)methyl)-2-(2,4-dioxotetrahydropyrimidin-1(2H)-yl)isoindoline-1,3-dione]
CK1α substrate protein remaining % (CK1α): A ("A" is defined as 0% ≤ substrate protein remaining % ≤ 80%)
IKZF3 substrate protein remaining % (IKZF3): A ("A" is defined as 0% ≤ substrate protein remaining % ≤ 80%)
WEE1 substrate protein remaining % (WEE1): A ("A" is defined as 0% ≤ substrate protein remaining % ≤ 80%)
IKZF1 substrate protein remaining % (IKZF1): A ("A" is defined as 0% ≤ substrate protein remaining % ≤ 80%)
GSPT1 substrate protein remaining % (GSPT1): A ("A" is defined as 0% ≤ substrate protein remaining % ≤ 80%)
IKZF2 substrate protein remaining % (IKZF2): A ("A" is defined as 0% ≤ substrate protein remaining % ≤ 80%)

O=C1CCN(N2Cc3cc(CN4CCN(c5cccc(F)c5)CC4)ccc3C2=O)C(=O)N1 [GT-06701, 1-(5-((4-(3-fluorophenyl)piperazin-1-yl)methyl)-1-oxoisoindolin-2-yl)dihydropyrimidine-2,4(1H,3H)-dione]
CK1α substrate protein remaining % (CK1α): A ("A" is defined as 0% ≤ substrate protein remaining % ≤ 80%)
IKZF3 substrate protein remaining % (IKZF3): B ("B" is defined as 80%< substrate protein remaining %≤ 100%)
WEE1 substrate protein remaining % (WEE1): B ("B" is defined as 80%< substrate protein remaining %≤ 100%)
IKZF1 substrate protein remaining % (IKZF1): B ("B" is defined as 80%< substrate protein remaining %≤ 100%)
GSPT1 substrate protein remaining % (GSPT1): A ("A" is defined as 0% ≤ substrate protein remaining % ≤ 80%)
IKZF2 substrate protein remaining % (IKZF2): B ("B" is defined as 80%< substrate protein remaining %≤ 100%)

O=C1CCN(N2C(=O)c3ccc(CN4CCN(c5ccccc5)CC4)cc3C2=O)C(=O)N1 [GT-06719, 2-(2,4-dioxotetrahydropyrimidin-1(2H)-yl)-5-((4-phenylpiperazin-1-yl)methyl)isoindoline-1,3-dione]
CK1α substrate protein remaining % (CK1α): B ("B" is defined as 80%< substrate protein remaining %≤ 100%)
IKZF3 substrate protein remaining % (IKZF3): A ("A" is defined as 0% ≤ substrate protein remaining % ≤ 80%)
WEE1 substrate protein remaining % (WEE1): B ("B" is defined as 80%< substrate protein remaining %≤ 100%)
IKZF1 substrate protein remaining % (IKZF1): B ("B" is defined as 80%< substrate protein remaining %≤ 100%)
GSPT1 substrate protein remaining % (GSPT1): B ("B" is defined as 80%< substrate protein remaining %≤ 100%)
IKZF2 substrate protein remaining % (IKZF2): B ("B" is defined as 80%< substrate protein remaining %≤ 100%)

COc1ccccc1N1CCN(Cc2ccc3c(c2)C(=O)N(N2CCC(=O)NC2=O)C3=O)CC1 [GT-06720, 2-(2,4-dioxotetrahydropyrimidin-1(2H)-yl)-5-((4-(2-methoxyphenyl)piperazin-1-yl)methyl)isoindoline-1,3-dione]
CK1α substrate protein remaining % (CK1α): B ("B" is defined as 80%< substrate protein remaining %≤ 100%)
IKZF3 substrate protein remaining % (IKZF3): A ("A" is defined as 0% ≤ substrate protein remaining % ≤ 80%)
WEE1 substrate protein remaining % (WEE1): B ("B" is defined as 80%< substrate protein remaining %≤ 100%)
IKZF1 substrate protein remaining % (IKZF1): B ("B" is defined as 80%< substrate protein remaining %≤ 100%)
GSPT1 substrate protein remaining % (GSPT1): B ("B" is defined as 80%< substrate protein remaining %≤ 100%)
IKZF2 substrate protein remaining % (IKZF2): B ("B" is defined as 80%< substrate protein remaining %≤ 100%)

COc1cccc(N2CCN(Cc3ccc4c(c3)C(=O)N(N3CCC(=O)NC3=O)C4=O)CC2)c1 [GT-06721, 2-(2,4-dioxotetrahydropyrimidin-1(2H)-yl)-5-((4-(3-methoxyphenyl)piperazin-1-yl)methyl)isoindoline-1,3-dione]
CK1α substrate protein remaining % (CK1α): B ("B" is defined as 80%< substrate protein remaining %≤ 100%)
IKZF3 substrate protein remaining % (IKZF3): A ("A" is defined as 0% ≤ substrate protein remaining % ≤ 80%)
WEE1 substrate protein remaining % (WEE1): B ("B" is defined as 80%< substrate protein remaining %≤ 100%)
IKZF1 substrate protein remaining % (IKZF1): A ("A" is defined as 0% ≤ substrate protein remaining % ≤ 80%)
GSPT1 substrate protein remaining % (GSPT1): B ("B" is defined as 80%< substrate protein remaining %≤ 100%)
IKZF2 substrate protein remaining % (IKZF2): A ("A" is defined as 0% ≤ substrate protein remaining % ≤ 80%)

O=C1CCN(N2C(=O)c3ccc(CN4CCN(c5cccc(Br)c5)CC4)cc3C2=O)C(=O)N1 [GT-06722, 5-((4-(3-bromophenyl)piperazin-1-yl)methyl)-2-(2,4-dioxotetrahydropyrimidin-1(2H)-yl)isoindoline-1,3-dione]
CK1α substrate protein remaining % (CK1α): A ("A" is defined as 0% ≤ substrate protein remaining % ≤ 80%)
IKZF3 substrate protein remaining % (IKZF3): A ("A" is defined as 0% ≤ substrate protein remaining % ≤ 80%)
WEE1 substrate protein remaining % (WEE1): A ("A" is defined as 0% ≤ substrate protein remaining % ≤ 80%)
IKZF1 substrate protein remaining % (IKZF1): A ("A" is defined as 0% ≤ substrate protein remaining % ≤ 80%)
GSPT1 substrate protein remaining % (GSPT1): B ("B" is defined as 80%< substrate protein remaining %≤ 100%)
IKZF2 substrate protein remaining % (IKZF2): B ("B" is defined as 80%< substrate protein remaining %≤ 100%)

O=C1CCN(N2C(=O)c3ccc(CN4CCN(c5cccc(F)c5)CC4)cc3C2=O)C(=O)N1 [GT-06724, 2-(2,4-dioxotetrahydropyrimidin-1(2H)-yl)-5-((4-(3-fluorophenyl)piperazin-1-yl)methyl)isoindoline-1,3-dione]
CK1α substrate protein remaining % (CK1α): B ("B" is defined as 80%< substrate protein remaining %≤ 100%)
IKZF3 substrate protein remaining % (IKZF3): B ("B" is defined as 80%< substrate protein remaining %≤ 100%)
WEE1 substrate protein remaining % (WEE1): A ("A" is defined as 0% ≤ substrate protein remaining % ≤ 80%)
IKZF1 substrate protein remaining % (IKZF1): A ("A" is defined as 0% ≤ substrate protein remaining % ≤ 80%)
GSPT1 substrate protein remaining % (GSPT1): B ("B" is defined as 80%< substrate protein remaining %≤ 100%)
IKZF2 substrate protein remaining % (IKZF2): B ("B" is defined as 80%< substrate protein remaining %≤ 100%)
